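In this assay, cells in 96-well plates receive the compound at five concentrations for 48 hours. Endpoints are linearly interpolated between the surrounding concentrations. At the TGI there is no net growth.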
Legend:
Assay in all cases: NCI-60 cell line screen, 48 h
[1] = system: PC-3 prostate
[2] = system: M14 melanoma
[3] = system: LOX IMVI melanoma
[4] = system: HCT-15 colon
[5] = system: RXF 393 renal
[6] = system: MALME-3M melanoma
[7] = system: T-47D breast
[8] = system: MOLT-4 leukemia
[9] = system: MCF7 breast
[10] = system: ACHN renal
[11] = system: SK-MEL-5 melanoma
[12] = system: HCT-116 colon
[13] = system: NCI-H522 lung

Row | Structure (SMILES) | TGI [1] [µM] | TGI [2] [µM] | TGI [3] [µM] | TGI [4] [µM] | TGI [5] [µM] | TGI [6] [µM] | TGI [7] [µM] | TGI [8] [µM] | TGI [9] [µM] | TGI [10] [µM] | TGI [11] [µM] | TGI [12] [µM] | TGI [13] [µM]
1 | Cc1ccc(S(=O)(=O)n2ccn3c(=O)cc(C)nc23)cc1 | > 10 | > 10 | > 10 | > 10 | > 10 | > 10 | > 10 | > 10 | > 10 | > 10 | > 10 | > 10 | 
2 | C=CCSc1nn(CC=C)cc2ncnc1-2 | > 100 | > 100 |  | > 100 | > 100 |  | > 100 | > 100 | > 100 | > 100 | > 100 | > 100 | 
3 | CC(O[Si](C)(C)C(C)(C)C)[C@H](NC(=O)OCC(Cl)(Cl)Cl)C(=O)O (stereo partly specified) | > 100 |  |  | > 100 | > 100 | > 100 | > 100 | > 100 | > 100 | > 100 | > 100 | > 100 | > 100
4 | Cc1[nH]n(-c2ccccc2)c(=S)c1C(=O)c1ccccc1 |  | 93.7 | > 100 | > 100 | 10.8 | > 100 |  | 79.4 |  | > 100 | > 100 |  | > 100
5 | O=C(c1nsc(Cl)c1Cl)N1CCCCC1 | > 100 | > 100 | > 100 | > 100 | > 100 | > 100 |  | > 100 | > 100 |  | > 100 | > 100 | 
6 | Cc1ccc(N2C(=O)/C(=c3\s/c(=C(/N)O)c(=N)n3-c3ccccc3)SC2=S)cc1 |  |  |  |  |  |  |  | > 100 |  | > 100 | > 100 | > 100 | > 100
7 | COC(=O)[C@]1(c2cc3ccccc3n2S(=O)(=O)c2ccccc2)CC2CCC1NC2 (stereo partly specified) | 24.5 | 27.2 | 36.4 | 40.5 | 25.7 | 30.5 | 27.2 |  | 28 | 51.3 | 26.4 | 26.6 | 30.6
8 | Cc1c(-c2ccccc2)n(C)c2cn[nH]c(=O)c12 | 51.3 | > 100 | 38.3 | > 100 |  | > 100 |  | > 100 | > 100 | > 100 | 31.8 | > 100 | > 100
9 | Cc1ccc2c(c1)NC(=O)C(N=[N+]=[N-])(c1ccccc1)C2=O (stereo unspecified) |  | 33 | 37.7 | 52.2 |  | 71.6 |  | 71.5 |  | > 100 | 47.4 | 79.4 | 45.6
10 | C(/COc1cccnc1)=N\NC1=NCCN1 |  | > 100 | > 100 | > 100 | > 100 | > 100 |  | > 100 |  | > 100 | > 100 | > 100 | > 100
11 | COc1cc(/C=C2\NC(=O)N(/C=C3\C(=O)Oc4ccccc4C3=O)C2=O)ccc1O | > 100 | > 100 | > 100 | > 100 | 99.2 |  | > 100 | > 100 | > 100 | > 100 | > 100 | > 100 | > 100

— PubChem BioAssay (NCI)
